The subject of one assay is commissural neurons. Briefly: dorsal spinal cord survival assay (commissural explant cultures). The format is cell-based, rat. On the procedure: To examine functional roles of DR6 in axonal degeneration and programmed cell death of commissural neurons, an RNAi-based dorsal spinal cord survival assay (Kennedy et al., Cell, 78:425-435 (1994); Wang et al., supra, 1999) was conducted (see FIG. 3). E13 rat or E11.5 mouse embryos were placed in L15 medium (Gibco) and siRNAs (IDT) together with green fluorescent protein (“GFP”)-encoding plasmids were injected into the neural tubes. The siRNAs and plasmids were then delivered to dorsal progenitor cells by electroporation. Dorsal spinal cord explants were dissected out, embedded into a 3D-collagen gel matrix, and cultured in Opti-MEM/F12 medium (Invitrogen) with recombinant netrin-1 ([…]) and 5% horse serum (Sigma) at 37° C. in a 5% CO2 environment. Within 16 hours in response to chemo-attractant netrin-1, commissural axons grow out of the explant into the collagen matrix gel (Kennedy et al., supra, 1994). Commissural axons are visualized by GFP fluorescence by observation using an inverted microscope.
Materials and methods used to generate the data shown in this figure are as follows. To investigate physiological roles of DR6 receptor in axonal degeneration and programmed cell death of commissural neurons, a dorsal spinal cord survival assay according to protocols known in the art (Kennedy et al., Cell 78:425-435 (1994); Wang et al., Nature 401:765-769 (1999)) was performed (with data shown in FIG. 4B). E13 rat embryos were placed in L15 medium (Gibco) and injected into their neural tubes with the following siRNA constructs (FIG. 4B):
Control non-targeting, or targeting DR6 siRNA #2, or targeting DR6 siRNA #3 (IDT) together with either wild-type or mis-match DR6 cDNA and GFP-encoding plasmids. DR6 cDNA and GFP cDNA were subcloned into pCAGGS vector backbone (commercially available from BCCM/LMBP). siRNAs and plasmids were then delivered to dorsal progenitor cells by electroporation. Dorsal spinal cord explants were then dissected out, embedded into a 3D collagen gel matrix and cultured in Opti-MEM/F12 medium (Invitrogen) with recombinant netrin-1 and 5% horse serum (Sigma) at 37° C. in a 5% CO2 environment. Within 16 hours in response to chemo-attractant netrin-1 commissural axons grow out of the explant into the collagen matrix gel (Kennedy et al., Cell 78:425-435 (1994). Commissural axons are visualized by GFP fluorescence by observation using inverted microscope. After 48 hours in culture in the absence of trophic factor support derived from the floorplate, commissural neurons undergo programmed cell death and their axons degenerate (Wang et al., Nature, 401:765-769 (1999)) (FIG. 4B). However, the axonal degeneration program can be blocked by introduction of a targeting DR6-specific siRNA #3 (FIG. 4B). The specific, on-target effect of DR6-specific siRNA #3 is further confirmed in a rescue experiment in which axonal degeneration phenotype is restored by co-expression of the siRNA#3-resistant mis-match DR6 cDNA construct together with DR6 siRNA #3 (FIG. 4B). Presented experimental evidence establishes that DR6 receptor function is required for axonal degeneration and death of commissural neurons upon withdrawal from their intermediate target, the floorplate of the spinal cord.
A dorsal spinal cord survival assay (as described in Example 2 above) was conducted using anti-DR6 antibodies. Microscopic observation (using green fluorescence channel for GFP) was employed to visualize commissural axons. […]

In a further assay the test system is sensory axons. The assay can be described thus: NGF deprivation assay in Campenot chambers (local sensory axon degeneration). The following applies: for sensory axonal degeneration induced by NGF withdrawal: 30 μg/ml hDR6-ECD-Fc in axonal compartment, 0 to 24 hours. The format is cell-based, mouse. On the procedure:
Materials and methods used to generate the data shown in this figure are as follows. To examine whether ligand is required for DR6 function in sensory axonal degeneration, a compartmented culture analysis of sensory axon growth and degeneration was carried out as follows. A Campenot nerve cell chamber system was used to isolate neuronal processes (axons) from the cell bodies in different compartments (separate fluid environments), analogous to neuronal cell bodies in one location of the nervous system projecting their axons to a distal target in another location. The assay was carried out as originally described by Campenot (Campenot et al., J. Neurosci. 11(4): 1126-39 (1991)) with the following modifications. Briefly, 35-mm tissue culture dishes were coated with PDL/Laminin and scratched with a pin rake (Tyler Research) to generate tracks, as illustrated for example in FIGS. 1 and 4 of Campenot et al., supra.
A drop of culture medium (Neurobasal medium with B27 supplement, 25 ng/ml of NGF, and 4 g/L of methylcellulose) was placed on the scratched substratum. A Teflon divider (Tyler Research) was seated on silicone grease and a dab of silicone grease was placed at the mouth of the center slot. Dissociated sensory neurons derived from E12.5 mouse DRGs were suspended in methylcellulose-thickened medium and loaded into a disposable sterile syringe fitted with a 22-gauge needle. This cell suspension was injected into the center slots of each compartmented dish under the dissecting microscope. The neurons were allowed to settle overnight. […]
To trigger local axonal degeneration, NGF-containing medium from axonal compartments was substituted with neurobasal medium with an NGF blocking antibody (anti-NGF, Genentech, Inc., 20 ug/ml). Zero hours, 6 hours, or 24 to 48 hours following NGF deprivation, sensory neurons were fixed in 4% PFA for 30 minutes at room temperature and processed for immunofluorescence staining with axonal marker TUJ-1 (Covance, 1:500 dilution) to visualize degenerating axons by fluorescence microscopy (FIG. 11B) (as above described in Example 7). […]
To examine whether ligand is required for DR6 function in axonal degeneration program triggered by NGF withdrawal, 30 μg/ml of hDR6-ECD-Fc immunoadhesin protein (described in Example 3 above) or 30 μg/ml of a control Fc (Genentech, Inc.) was included together with anti-NGF treatment in axonal compartments of Campenot Chambers. Zero to 24 hours after NGF deprivation, axons in Campenot Chambers were fixed with 4% PFA/PBS and visualized by immuno-fluorescence staining with TUJ-1 (1:500, Covance)/secondary antibody conjugated to a fluorescence group Alexa 488 (Molecular Probes, BD) (FIG. 11B). […]

Assay [1] concerns DR6-AP binding sites on BAX null sensory axons. Briefly: in situ DR6-AP sensory axon binding assay. The following applies: BACE inhibitor 1 uM; BAX null E12.5 sensory axons. The format is cell-based, mouse. On the procedure:
For the in situ DR6-AP sensory axon binding assay, either wild-type or Bax null sensory explants were cultured in Neurobasal medium/B27 (Invitrogen) as outlined in the Examples 7-8 above, with 50 ng/mlNGF (Roche). Two days post-plating, DRG explants were either left untreated or deprived from NGF as described above in Examples 7-8. Bax inhibitory peptide was added where indicated on FIG. 12B (10 uM, Bax-V5, Tocris). Twelve hours post-NGF deprivation, DRG explants were washed twice with the binding buffer (HBSS, Gibco Cat. No. 14175-095, with 0.2% BSA, 0.1% NaN3, 5 mM CaCl2, 1 mM MgCl2, 20 mM HEPES, pH=7.0). AP binding assay was then carried out by making a 1:1 mixture of DR6-AP conditioned medium and the binding buffer (or control AP conditioned medium and the binding buffer), which was applied directly to DRG explants in 8-well culture slides (Becton, Dickinson and Company) and incubated for 90 minutes at room temperature.
Following the incubation, unbound DR6-AP proteins were washed away by rinsing DRG explants five times with the binding buffer. DRG explants were then fixed with 3.7% formaldehyde diluted in PBS, for 12 minutes at room temperature. The remaining formaldehyde was removed by rinsing DRG explants 3 times with HBS buffer (20 mM HEPES pH=7.0, 150 mM NaCl). Endogenous AP activity was blocked by heat inactivation at 65° C. in HBS buffer for 30 minutes. […]

In assay [2] the target is p75 (as used in the ELISA and in general statements). The assay can be described thus: ELISA, format not described (data not shown).

Where a SMILES comes first, the peptide text is derived from it. The star is where a group is joined. Cbz = O=C(OCc1ccccc1)*; CH2F = FC*

(L)-HIV-TAT48-57-PP-JBD20 [L-JNK-I]: the “stereotyped degeneration of commissural neurons in DSC explant cultures” value with commissural neurons (JNK inhibitor at 10 μM, 48 hr, no trophic factor, listed as L-JNKI-1) is on record as “largely blocks stereotyped degeneration”. The “axonal degeneration of commissural neurons” value in the assay with commissural neurons (peptide JNK inhibitor at 1 μM) is recorded as “partially blocked axonal degeneration”.

Take “Abeta: recombinant human Beta amyloid amino acids 1-42, Chemicon”: the “induction of commissural axonal degeneration” value in the assay on commissural neurons (Abeta 1-42 3 μM added 24 hours after plating with BACE inhibitor 1 uM) is “axonal degeneration triggered”.

Turning to “hDR6-ECD-Fc: human DR6 extracellular domain sequence fused with Fc, SEQ ID NO: 4”, the commissural axon degeneration entry with commissural neurons (30 μg/ml and 10 μg/ml hDR6-ECD-Fc, 48 hours) is “delayed”. Moreover, the “sensory axonal degeneration induced by NGF withdrawal” value was “delayed the onset of axonal degeneration” in the assay on sensory axons and “delayed” with sensory axons (listed as DR6-Fc).

Regarding `CC[C@H](C)[C@H](NC(=O)OCc1ccccc1)C(=O)N[C@@H](CCC(=O)OC)C(=O)N[C@H](C(=O)N[C@@H](CC(=O)OC)C(=O)CF)[C@@H](C)O` [Z-IETD-FMK] (Cbz-IE(OMe)TD(OMe)-CH2F), in the assay on sensory axons (24 hours anti-NGF, SP 600125 1 uM, Z-IETD-FMK 10 uM, Z-DEVD-FMK 10 uM), the “axonal degeneration after NGF deprivation” value is listed as “delayed”.

For the molecule OM99-2, in assay [1], the “disappearance of DR6-AP binding sites from sensory axons following NGF withdrawal” value is reported as “block the disappearance of DR6-AP binding sites”. In addition, the “axonal degeneration after NGF deprivation” value with sensory axons (BACE inhibitor 1 uM) was “blocked”.

“APP (as used in the p75 ELISA) (from UniProt P05067 18-286) (ligand)”: the EC50 in assay [2] came to 300 nM.

Turning to “5′-CAAUAGGUCAGGAAGAUGGCU-3′ [DR6-specific siRNA #3]”, the “axonal degeneration of commissural neurons” value in the assay with commissural neurons (siRNA electroporated, 48 hours in culture without floorplate trophic support) was “blocked”.

For the origin of these results see patent US20120076785A1, “METHOD FOR INHIBITING NEURODEGENERATION” (GENENTECH, INC., priority 2009, published 2012).
